The record followed here is US20190388377A1, “COMPOSITIONS AND METHODS FOR THE TREATMENT OF LIVER DISEASES AND DISORDERS” (AXCELLA HEALTH INC., priority 2018, published 2019).

One assay deals with CCL18. Briefly: CCL18 secretion by ELISA, IL-4-treated primary human M2 macrophages, Example 5. Type of assay: cell-based. Particulars: IL-4 1 ng/ml, 5 mM. On the procedure: On day 0, primary human PBMC derived macrophages were seeded in Dulbecco's Modified Eagle Medium (DMEM) (Gibco) supplemented with penicillin-streptomycin (Hyclone) and 10% heat inactivated fetal bovine serum (HI-FBS) (Atlanta Bio) into 96-well microplates (ThermoFisher) and incubated overnight at 37° C., 5% CO2. On day 1, cells were washed once with DPBS and then treated with: • a. Amino acid free DMEM (US Biologicals) containing a defined custom amino acid concentration based on the mean physiological concentrations in blood based on values published in the Human Metabolome Database (HMDB), with 6 mM glucose, 1 mM sodium pyruvate, 10 mM HEPES, penicillin-streptomycin; or • b. The same medium described above with one amino acid or amino acid combination at various concentrations
On day 2, cells were treated with the same mediums described above supplemented with recombinant human interleukin-4 (1 ng/ml of IL-4; Peprotech). […]
On day 3, the supernatant was collected and immediately frozen in −80° C. freezer. Cells were washed once with DPBS and viability was assessed using the WST-8 Cell Proliferation Cytotoxicity Assay (Dojindo) according to manufacturer-supplied protocol. […] Protein levels in supernatant samples were analyzed by ELISA for CCL18 using commercially available kits (R&D Systems) according to manufacturer-supplied protocols.
Background: An ELISA detects its analyte on a solid surface through an enzyme-linked reagent.

A further assay deals with Albumin. Briefly: Albumin secretion after 72 h by ELISA, PHH model, Example 2. It counts as cell-based, human. Particulars: FFA+TNFα. The method, then:
PHH from two healthy human donors (Lonza, TRL) were seeded on day 0 at density of 6e04 cells in 96 well optical microplates (Thermofisher) in hepatocyte plating media (William's E medium, WEM) (Gibco) supplemented with 10% heat-inactivated FBS (Atlanta Bio), 2 mM Glutamax (Gibco), and 0.2% Primocin (InVivoGen) and incubated for 6 hours at 37° C., 5% CO2. After 6 hours, cells were washed twice and incubated overnight at 37° C., 5% CO2 with Hepatocytes defined medium (Corning) supplemented with 2 mM Glutamax (Gibco), and 1× Penicillin/Streptomycin. On day 1, cells were washed twice and incubated for 24 h in the hepatocyte culture media in the same conditions described above.
On day 2, cells were washed twice with DPBS 1× (Gibco) to remove excess amino acids and maintained in pretreatment media (1×HMDB, a defined custom amino acid concentration based on the mean physiological concentrations in blood, in WEM±supplemental amino acids): • a. Amino acid-free WEM (US Biologicals) supplemented with 11 mM Glucose (Sigma), 0.272 mM Sodium Pyruvate (Sigma), 1× P/S (Gibco) and containing 1×HMDB with no supplemental amino acids; or • b. The same media described above 1×HMDB WEM with supplemental amino acid and amino acid combination treatments at various concentrations. Cells were maintained in the defined media (a. & b.) for 24 hours at 37° C., 5% CO2. The HMDB values are published in the Human Metabolome Database (Wishart D S, Tzur D, Knox C, et al., HMDB: the Human Metabolome Database. Nucleic Acids Res. 2007 January; 35 (Database issue):D521-6. 17202168; which is hereby incorporated by reference in its entirety). Co-Treatment with Free Fatty Acids and Amino Acids Combination
After 24 h pre-treatment, cells maintained in the pretreatment media±supplemental amino acids (section (a. & b.) described above) were exposed to free fatty acids (FFA) at 250 uM with a ratio of 2:1 (Oleate:Palmitate) supplemented with TNF-α (Thermofisher) at 1 ng/ml. Cells were incubated with the FFAs mixture (FFAs+TNF-α)±supplemental amino acids treatments for 24 hours at 37° C., 5% CO2. After 24 hours incubation, media was removed for cytokine analysis and replaced by fresh media containing the same conditions described above (FFAs mixture±supplemental amino acids treatments). Cells were incubated for an additional 48 hours for a total of 72 hours of FFA and TNF-α stimulation. After 72 hours of incubation, media was removed for albumin and urea analysis and the cells were fixed for nuclei and lipid staining.
Albumin secretion was measured as a functionality test in primary human hepatocytes. Albumin was measured by ELISA (Human Albumin ELISA Quantitation set, Bethyl Laboratories) at 1/200 dilution in the sample diluent (Bethyl Laboratories). Data is reported as median fold change from control, statistical analysis was done using t-Test.

Assay [1] has as its system alpha smooth muscle actin (αSMA). Briefly: HSC activation by alpha SMA immunostaining, TGFβ1-stimulated hepatic stellate cells. It counts as cell-based, human. The method, then: Primary human hepatic stellate cells were obtained from Samsara Sciences. Cells from three different donors were grown in Complete HSC Medium to ˜80% confluence in T75 or T150 flasks below passage 10 were seeded into sterile, collagen I coated, 96-well optical plastic microplates (ThermoScientific) and incubated overnight at 37° C., 5% CO2 in a humidified incubator in DMEM with 2% Fetal Bovine Serum and 1% Antimycotic. […] After 24 hours of stimulus, supernatant was removed and used to measure Procollagen III and cells were then washed and fixed with 4% paraformaldehyde for further staining.
Procollagen III, an important biomarker of fibrosis was measured by ELISA (Human PCIII Elisa Kit, G-Biosciences) following the manufacturer's recommendations. Fixed cells with 4% paraformaldehyde were permeabilized with 0.1% Triton X-100 then immunostained for alpha SMA and labeled for EdU incorporation.
Cells were imaged using ImageXpress micro confocal high content imager (Molecular Devices). […] Image analysis was performed using MetaXpress version 6.2.3.733 (Molecular Devices).
Fixed cells immunostained for alpha smooth muscle actin (αSMA) were analyzed and stained area was normalized to total nuclei count. Fold change were calculated relative to the baseline amino acid (1×HMDB) condition stimulated with 3 ng/mL TGFβ1.

A further assay concerns IL-6. Briefly: IL-6 secretion by ELISA, LPS-treated primary human M1 macrophages, Example 5. It counts as cell-based. On the procedure: Primary human PMBC derived macrophages were seeded on day 0 at 3.0E4 cells per well in 96-well microplates (ThermoFisher) in Dulbecco's Modified Eagle Medium (DMEM) (Gibco) supplemented with penicillin-streptomycin (Hyclone) and 10% heat inactivated fetal bovine serum (HI-FBS) (Atlanta Bio) and incubated overnight at 37° C., 5% CO2. On day 1, cells were washed once with 150 uL per well DPBS (Gibco) and treated with 75 uL of: • a. Amino acid free DMEM (US Biologicals) containing a defined custom amino acid concentration based on the mean physiological concentrations in blood based on values published in the Human Metabolome Database (HMDB), with 6 mM glucose, 1 mM sodium pyruvate, 10 mM HEPES, 0.2% primocin (InVivoGen); or • b. The same media described above with supplemental amino acid and amino acid combination treatments at various concentrations. […]
On day 3, the supernatant was collected and immediately frozen in −80° C. freezer. Cells were washed once with 150 uL DPBS and viability was assessed using the WST-8 Cell Proliferation Cytotoxicity Assay (Dojindo). […] Protein levels in supernatant samples were analyzed by ELISA for IL-6 and TNFa using commercially available kits (R&D Systems) according to manufacturer-supplied protocols.

On to `CC(=O)N[C@@H](CS)C(=O)O` [Nac, N-acetylcysteine], for which, in the assay on CCL18, the “CCL18 Median Fold Change from Vehicle (log2)” value is reported as 0.387 log2. The “albumin secretion (in words)” value in the assay on Albumin (hepatocyte donor 1) is on record as “slightly decreased albumin secretion”; with Albumin (hepatocyte donor 2) it was “induce albumin secretion”. The “alpha SMA stained area (in words)” value in assay [1] is “reduced the alpha SMA stained area at a high level”. Moreover, in the assay with IL-6, the “LPS-stimulated IL-6 secretion (in words)” value was “decreased LPS-stimulated IL-6 and TNFa secretion”.
